From patent US10508147B2, “Anti-nodal antibodies and methods of using same” (ANN AND ROBERT H. LURIE CHILDREN'S HOSPITAL OF CHICAGO, priority 2014, dated 2019)
“Also recorded” adds a separate entry of the source.

Experiments:
[1] = tested on: A375SM human metastatic melanoma cells; assay: A375SM orthotopic xenograft in Nude mice; format: in vivo
Protocol: Experiments were carried out to determine the in vivo effects of 3D1 mAb on primary melanoma. To this end, 500,000 C8161 cells were injected subcutaneously in Nude mice. Palpable tumors were then injected directly with either 700 μg of total 3D1 mAb or IgG control antibody (alternate day intratumoral injection of 100 μg over 14 days). Mice were then sacrificed and subcutaneous tumors harvested and processed as previously described. To evaluate the effect of 3D1 mAb in the presence of the BRAF(V600E) mutation, a third orthotopic xenograft model was established in Nude mice via subcutaneous injection of approximately 150,000 A375SM human metastatic melanoma cells. Mice were treated IP with 3D1 mAb or IgG control, as described above, or 3 mg/kg of dabrafenib.
Four micron thick, formalin fixed, paraffin embedded tissue sections were prepared and immunohistochemistry was carried out on a Dako Plus autostainer (DAKO, Inc, Carpenteria, Calif.). Following antigen retrieval and blocking steps, sections were incubated in primary antibody for 60 mins, followed by appropriate biotinylated secondary antibody (Biocare Medical, Conrad, Calif.), and then streptavidin-horseradish peroxidase (Thermo Scientific Lab Vision). Color was developed with 3,3′-diaminobenzidine substrate (Thermo Scientific Lab Vision) and sections were counterstained with hematoxylin (Biocare Medical, LLC). As a negative control, adjacent serial sections were incubated with species appropriate irrelevant IgG (Jackson ImmunoResearch Labs) at the same concentration as primary antibodies. Similar to the lung tumor burden evaluation described above, mean percentage of positive staining±SEM was determined by 2 different observers, each calculating the ratio of positive cells/total number of cells×100 for 4 separate high power fields (63× objective) from at least 2 different mice per group.

[2] = tested on: A375SM human melanoma cell line; assay: Western blot of A375SM cells treated with BRAFi (dabrafenib) or 3D1; format: cell-based; conditions: 72 hr
Protocol: To determine the level of Nodal expression in brain, kidney, liver, pancreas, heart and skeletal muscle ready to use adult tissue extracts for Western blotting (WB) were purchased from Santa Cruz Biotechnology. For WB experiments of cell lines, whole cell lysates were prepared and quantified. SDS-PAGE gel electrophoresis and WB were performed using standard techniques. PVDF membranes were blocked in 5% non-fat milk or 5% BSA and antibodies diluted in either 5% non-fat milk or 5% bovine serum albumin overnight at 4° C., depending on the manufacturer's recommendations. Signal was detected using West Pico chemiluminescence reagent (Thermo Fisher) and exposure to x-ray film.

3D1 mAb = assay: ELISA epitope mapping and specificity assay of coated peptides probed with 3D1; format: binding, mouse; conditions: peptides coated at 1.0 μg/mL; 3D1 mAb 1.0 μg/mL
Protocol: Residues underlying the binding between 3D1 and Nodal were investigated by epitope mapping using a set of Nodal synthetic peptides (See FIG. 9). […] Peptides were immobilized at 1 μg/mL and probed with 3D1 at […]. Data were normalized to the binding of the peptide hNODAL (44-69) wild-type (WT). […] Most interactions were established with C43, P46, V47, E49, E50. The effect of Y58 can be on the conformation of the peptide.
Peptides used for the epitope mapping and for the specificity assay of the 3D1 mAb were coated at 1.0 μg/mL diluted in PBS; 3D1 mAb, dissolved in PBS, was used as primary antibody at 1.0 μg/mL.

endogenous Nodal = assay: Western blot competition between 3D1 antigen peptide and endogenous Nodal in human embryonic stem cell lysates; format: binding; conditions: 3D1 4 μg/mL, hNodal(44-56) 10 μg/mL; H9 and H14 hESC lysates
Protocol: Thirty micrograms of H9 and H14 human embryonic stem cell total protein lysates, obtained as previously described, were separated on a 15% SDS-PAGE gel under reducing conditions and the resolved proteins were transferred onto a PVDF membrane. 50 ng of rhNodal protein were used as positive control. A Western blotting procedure was conducted: membranes were blocked, then probed with the 3D1 alone at 4.0 μg/mL in 2.5% NFDM in TBS-T and with the 3D1 mAb at 4.0 μg/mL pre-incubated with its antigen, the hNodal(44-56) peptide at 10 μg/mL. […] Blots were developed with Enhanced Chemiluminescence Western Blot Substrate (Pierce, Rockford, Ill., USA) following the manufacturer's instructions and were acquired by using a Chemidoc XRS video densitometer (Bio-Rad, Hercules, Calif., USA).

Molecule | mean percentage (±SEM) of nuclear P-Smad2 ([1]; IHC, N=4) | tumor volumes ([1]; after 8 days, vs IgG control) | Nodal expression [2] | ERK1/2 activity (P-ERK1/2) ([2]; dabrafenib 10 nM) | ELISA signal for binding to 3D1 (3D1 mAb) | staining of endogenous Nodal by 3D1 after pre-incubation with the peptide (endogenous Nodal)
CC(C)(C)c1nc(-c2cccc(NS(=O)(=O)c3c(F)cccc3F)c2F)c(-c2ccnc(N)n2)s1 [dabrafenib] | 68.7%±6.3% | trend towards reduced tumor volumes | relatively unaffected; also recorded: only minimally affected | significantly reduced | – | –
CEGECPNPVGEEFHPTNHAYIQSLLKRYQPHRVPSTC [hNodal(39-75)] | – | – | – | – | bound with similar efficiency | –
PNPVGEEFHPTNH [hNodal(44-56)] | – | – | – | – | strongest signal | no longer detectable
